Values after ≈ are worked out from the molar mass of the structure shown.
What was measured:
Format in all cases: cell-based
[1] = test system: Escherichia coli NIHJ; assay: Antibacterial Activity (MIC) against Escherichia coli NIHJ
[2] = test system: Proteus morganii EP-14; assay: Antibacterial Activity (MIC) against Proteus morganii EP-14; settings: Morganella morganii, EP14
[3] = test system: Staphylococcus aureus 209-P; assay: Antibacterial Activity (MIC) against Staphylococcus aureus 209-P
[4] = test system: Klebsiella pneumoniae EK-6; assay: Antibacterial Activity (MIC) against Klebsiella pneumoniae EK-6; settings: EK6
[5] = test system: Pseudomonas aeruginosa EP-172; assay: Antibacterial Activity (MIC) against Pseudomonas aeruginosa EP-172; settings: EP172
[6] = test system: Serratia marcescens ES-75; assay: Antibacterial Activity (MIC) against Serratia marcescens ES-75; settings: ES75

MIC [1] [mg/L] | MIC [2] [mg/L] | MIC [3] [mg/L] | MIC [4] [mg/L] | MIC [5] [mg/L] | MIC [6] [mg/L] | Compound
0.4 (≈ 0.46 µM) | 1.56 (≈ 1.79 µM) | 6.25 (≈ 7.19 µM) | ≥ 0.05 | 0.8 (≈ 0.92 µM) | ≥ 0.05 | CCOC(=O)Oc1cc2occ(C(=O)N[C@@H](C(=O)N[C@@H]3C(=O)N4C(C(=O)O)=C(CSc5nnnn5CC(=O)O)CS[C@H]34)c3ccc(O)cc3)c(=O)c2cc1OC(=O)OCC [Preparatory Example 2 (A), 7β-[D-2-{6,7-bis(ethoxycarbonyloxy)chromone-3-carboxamido}-2-(4-hydroxyphenyl)acetamido]-3-[(1-carboxymethyl-5-tetrazolyl)thiomethyl]-3-cephem-4-carboxylic acid]
0.4 (≈ 0.551 µM) | 12.5 (≈ 17.2 µM) | 3.13 (≈ 4.31 µM) | ≥ 0.1 | 0.8 (≈ 1.1 µM) | ≥ 0.1 | O=C(O)Cn1nnnc1SCC1=C(C(=O)O)N2C(=O)[C@@H](NC(=O)[C@H](NC(=O)c3coc4cc(O)c(O)cc4c3=O)c3ccc(O)cc3)[C@H]2SC1 [Preparatory Example 2 (B), 7β-[D-2-(6,7-Dihydroxychromone-3-carboxyamido)-2-(4-hydroxyphenyl)acetamido]-3-[(1-carboxymethyl-5-tetrazolyl)thiomethyl]-cephem-4-carboxylic acid]

— patent US4331606A, “N-(Substituted chromone-3-carbonyl)-phenylglycine derivatives” (Eisai Co., Ltd., priority 1980, dated 1982)
